In experiment [1] the test system is MIA PaCa2 human pancreatic cancer cells with KRAS G12C mutation. Description: Cell experiment: anti-proliferative activity, CellTiter-Glo, MIA PaCa2. The following applies: Homo sapiens, MIA PaCa-2, 120 h, 5 days culture. The class given is cell-based. The procedure: This experiment is intended to verify that the compounds of the present invention have an inhibitory effect on the proliferation of NCI-H358 human non-small cell lung cancer cells with KRAS G12C mutation, MIA PaCa2 human pancreatic cancer cells with KRAS G12C mutation and wild-type A375 human malignant melanoma cells.
40 μl of phosphate buffer was added to the peripheral wells of three 384-well microplates respectively, and 40 μl of cell suspension to be tested was added to the other wells of each plate respectively (plate 1: NCI-H358 cell suspension containing 500 NCI-H358 cells; plate 2: MIAPaCa2 cell suspension containing 300 MIAPaCa2 cells; plate 3: A375 cell suspension containing 300 A375 cells). The three cell plates were then placed in a carbon dioxide incubator and incubated overnight. Echo was used to perform a 3-fold gradient dilution of the compounds to be tested, and each compound was diluted with 10 concentration gradients (diluted from 50 μM to 0.003 μM), 100 nl of which was respectively added to the corresponding wells of the cell plates; after dosing, 40 μL of phosphate buffer was added to each well of rows A and P and columns 1 and 24, and then the cell plates were put back to the carbon dioxide incubator for culturing for 5 days. 20 μl of Promega CellTiter-Glo reagent per well was added to the cell plates, which was shaken at room temperature for 10 minutes in the dark to stabilize the luminescence signal. A PerkinElmer Envision multi-label analyzer was used for reading.
Data analysis: IC50 results were analyzed by GraphPad Prism 5.0 software […].

The subject of experiment [2] is human non-small cell lung cancer NCI-H358. Kind of experiment: In vivo drug efficacy test (4): subcutaneous xenograft tumor model. Details: species or system BALB/c nude mice. The following applies: for TGI: day 27. As to the method: To evaluate the in vivo efficacy of the test compounds in a subcutaneous xenograft tumor model of human non-small cell lung cancer NCI-H358.
BALB/c nude mice, female, 6-8 weeks old, weighing 18-20 grams. A total of 40 were required. They were provided by Shanghai Lingchang Experimental Animal Co., Ltd ( ? ? ). NCI-H358 tumor cells were resuspended in PBS to prepare a cell suspension with a density of 5×10^7/mL, which was inoculated subcutaneously on the right back of each mouse (0.1 mL, 5×10^6/mouse) to wait for tumor growth. When the average tumor volume reached about 166 mm^3, randomized grouping and administration were performed, and the administration dose was shown in Table 8. The diameter of the tumor was measured with vernier calipers twice a week.
The formula for calculating the tumor volume is: V=0.5a×b^2, wherein a and b represent the long and short diameters of the tumor, respectively. The tumor suppressive effect of the compounds was evaluated by TGI (%). TGI (%) reflects the tumor growth inhibition rate. Calculation of TGI (%): TGI (%)=[(1−(average tumor volume at the end of administration in a treatment group−average tumor volume at the beginning of administration in the treatment group))/(average tumor volume at the end of treatment in the solvent control group−average tumor volume at the beginning of treatment in the solvent control group)]×100%.

Experiment [3] concerns human pancreatic cancer x-MIA-PaCa2 cell. Description: In vivo drug efficacy test (3): subcutaneous xenograft tumor model. Particulars: 50 mg/kg. Details: species or system NU/NU mice. As to the method:
To evaluate the in vivo efficacy of the test compounds in a subcutaneous xenograft tumor model of human pancreatic cancer x-MIA-PaCa2 cell.
NU/NU mice, female, 6-8 weeks old, weighing 17-20 grams. A total of 100 were required (additional 30% of animals were inoculated). They were provided by Beijing Vital River Science and Technology Co., Ltd. Each mouse was subcutaneously inoculated with 0.2 mL (10×10^6) of x-MIA-PaCa2 cells (plus matrigel, with the volume ratio being 1:1) on the right back. When the average tumor volume reached about 150 mm^3, grouping and administration were performed, and the administration dose was shown in Table 7. The diameter of the tumor was measured with vernier calipers twice a week. The formula for calculating the tumor volume is: V=0.5a×b^2, wherein a and b represent the long and short diameters of the tumor, respectively. The tumor suppressive effect of the compounds was evaluated by TGI (%). TGI (%) reflects the tumor growth inhibition rate. Calculation of TGI (%): TGI (%)=[(1−(average tumor volume at the end of administration in a treatment group−average tumor volume at the beginning of administration in the treatment group))/(average tumor volume at the end of treatment in the solvent control group−average tumor volume at the beginning of treatment in the solvent control group)]×100%.

[4] abbreviates: 50 mg/kg (0-2 days) + 1.5 mg/kg (3-27 days).

As usually defined, the IC50 is the concentration that inhibits the measured activity by half. Read a high IC50 as a need for much substance.

The compound `C=CC(=O)N1CCN(c2ncnc3c(=O)n(-c4c(N)c(Cl)cc(Cl)c4F)c(C(F)(F)F)cc23)CC1` [Example 49] came in with an IC50 in experiment [1] of 0.07 µM. For the same compound, the entries for the “Tumor volume (day 27)” value in experiment [2] (5 mg/kg), in experiment [2] (15 mg/kg) and in experiment [2] (setting [4]) were 117 mm^3, 56 mm^3 and 295 mm^3, respectively. Besides, the TGI is 107.25% in experiment [2] (5 mg/kg), 116.27% in experiment [2] (15 mg/kg), 80.92% in experiment [2] (setting [4]) and 96.77% in experiment [3] (day 14). For the same compound, in experiment [3], the “Tumor volume (day 14)” value was 204 mm^3.

For the origin of these results see patent US11453667B2, “Pyridone-pyrimidine derivative acting as KRASG12C mutein inhibitor” (MEDSHINE DISCOVERY INC., priority 2018, dated 2022).
